Holding throughout (assay): Matrix modified G-assay, small molecule competition titration
One experiment deals with T1, Tip1 (Homo sapiens, UniProt O14907).
T1 construct: made in house
T1 sequence (O14907 15-112 limits assumed): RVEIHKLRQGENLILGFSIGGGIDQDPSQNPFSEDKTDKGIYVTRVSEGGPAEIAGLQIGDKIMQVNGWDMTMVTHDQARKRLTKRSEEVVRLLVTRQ
The note with it: competition with biotinylated PL peptide at GST-PDZ fusion protein; read-out: IC50 Tip1 (relative binding affinity by titration analysis). How it is done: (§1) Small Molecule Competition Assay. The reagents, supplies and protocol are as follows:
(§2) Reagents and Supplies: • (1) Nunc Maxisorp 96 well Immuno-plates • (2) PBS pH 7.4 (phosphate buffered saline, 8 g NaCl, 0.29 g KCl, 1.44 g Na2HPO4, 0.24 g • (3) KH2PO4, add H2O to 1 L and pH 7.4; 0.2μ filter) • (4) Assay Buffer: 2% BSA in PBS (20 g of BSA per liter PBS), ICN Biomedicals • (5) Goat anti-GST polyclonal antibody, stock 5 mg/ml, stored at 4° C., (Amersham Pharmacia); Diluted 1:1000 in PBS to a final concentration 5 μg/ml • (6) HRP-Streptavidin, 2.5 mg/2 ml stock stored @ 4° C., Zymed,- dilute 1:2000 into Assay buffer, final [0.5 μg/ml] • (7) Biotinylated peptides (from Anaspec, stored in −20° C. freezer) • (8) GST-PRISM proteins (stock stored @ −80° C., after 1st thaw store in −10° C. freezer) • (9) TMB (3,3′,5,5′, teramethylbensidine), ready to use • (10) 0.18M H2SO4 • (11) 12-w multichannel pipettor • (12) 200 μl LTS tips • (13) 50 ml reagent reservoirs • (14) 50 polypropylene conical tubes • (15) 15 ml polypropylene round-bottom tubes • (16) 1.5 ml microtubes • (17) Molecular Devices microplate reader (450 nm filters) • (18) SoftMax Pro software • (19) Assay buffer (1×PBS, 0.01% Triton X-100)
(§3) Protocol. The wells of eighteen to twenty 96-well plates were coated with 100 μl of 5 μg/ml anti-GST antibody (in each well), and left overnight at 4° C. The plates were then emptied by inverting and tapped dry on paper towels. 200 μl of blocking buffer (1×PBS/2% BSA) was added to each well and the plates were left for 1-2 hrs at room temperature. […] GST-PDZ fusion proteins were diluted to a final concentration of 5 μg/ml in 1×PBS/2% BSA and 50 μl was added to each well. After incubating for 1-2 hours at 4° C. excess unbound fusion protein was removed by washing, i.e., using the automatic plate washer (3× with room temperature 1×PBS).
(§4) PDZ ligand peptides, small molecule test compounds, and HRP were prepared in Assay Buffer as follows: • Biotinylated PDZ ligand synthetic peptides were prepared in one-quarter final volume, i.e., at 4× final concentration; • Steptavidin-HRP conjugate (Zymed) was diluted (1:500) in one-quarter final volume, i.e., at 4× final concentration; • Biotinylated peptides and Streptavidin-HRP were then mixed together, and incubated for 20 min at room temperature to form a signal generating peptide ligand complex; • While the peptide/HRP mix was incubating, test compound dilutions were prepared in half the final volume, i.e., at 2× final concentration; and, • Immediately before adding the final peptide ligand complex mixture to the plate, the drug titration was added to give a mixture with 1× concentrations and the final correct total volume. The signal generating peptide ligand/test compound mixtures were then added to each well of the plates to give 50 μl per well and the time of each addition was recorded. The plates were then incubated at room temperature, after the last peptide had been added, for exactly 30 min. After incubation, the plates were washed using the automatic plate washer (7× with room temperature 1×PBS). To detect the signal generating peptide ligand TMB substrate (for HRP) was added to each well of the plates at 100 μl per well and the time of TMB addition was recorded. The plates were then incubated in the dark at room temperature for a maximum of 30 min. The calorimetric reaction was then stopped using 100 μl of 0.18M H2SO4 30 minutes after adding TMB. The signal in each well of the plates were then determined by measuring the optical density at 450 nm.
(§5) The relative binding affinities of the compounds in FIG. 2A, and other, small molecule inhibitors were determined by titrating the compounds in the same competitive binding assay.

Another experiment concerns the target T2, PSD95 d3 (Homo sapiens, UniProt P78352).
T2 construct: made in house
As to conditions: competition with biotinylated PL peptide at GST-PDZ fusion protein; read-out: IC50 PSD95 d3 (relative binding affinity by titration analysis). The method, then: as §1, §2, §3, §4, §5

Another experiment has as its target T3, Magi1 d1 (Homo sapiens, UniProt Q96QZ7).
T3 construct: made in house
As to conditions: competition with biotinylated PL peptide at GST-PDZ fusion protein; read-out: IC50 Magi1 d1 (relative binding affinity by titration analysis). How it is done: as §1, §2, §3, §4, §5

Another experiment deals with T4, PSD95 d2 (Homo sapiens, UniProt P78352).
T4 construct: made in house
The note with it: competition with biotinylated PL peptide at GST-PDZ fusion protein; read-out: IC50 PSD95 d2 (relative binding affinity by titration analysis). How it is done: as §1, §2, §3, §4, §5

For a further experiment, the target named is T5, Shank 1 (Homo sapiens, UniProt Q9Y566).
T5 construct: made in house
T5 sequence (Q9Y566 663-757 limits assumed): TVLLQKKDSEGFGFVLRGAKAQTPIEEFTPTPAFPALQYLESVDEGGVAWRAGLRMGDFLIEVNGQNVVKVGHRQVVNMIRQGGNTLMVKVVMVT
The note with it: competition with biotinylated PL peptide at GST-PDZ fusion protein; read-out: IC50 Shank 1 (relative binding affinity by titration analysis). How it is done: as §1, §2, §3, §4, §5

For a further experiment, the target named is T6, PSD95 d1 (Homo sapiens, UniProt P78352).
T6 construct: made in house
As to conditions: competition with biotinylated PL peptide at GST-PDZ fusion protein; read-out: IC50 PSD95 d1 (relative binding affinity by titration analysis). The method, then:
as §1, §2, §3, §4, §5

Where only a bound is given, the exact number is not on record here.

T3 sequence (Q96QZ7 472-554 limits assumed): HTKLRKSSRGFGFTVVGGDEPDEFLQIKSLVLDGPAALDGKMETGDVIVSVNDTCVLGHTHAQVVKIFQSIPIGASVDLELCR

`CCOc1ccc(NS(=O)(=O)c2cc(C(=O)Nc3ccccc3C(=O)O)ccc2C)cc1` [Compound 3558-0042]: the IC50 on Tip1, at PSD95 d3, at Magi1 d1, on PSD95 d2, on Shank 1 and at PSD95 d1 was above 250 µM throughout.
`Cc1ccc([N+](=O)[O-])cc1NC(=O)c1cc(S(=O)(=O)Nc2cccc(C(=O)O)c2)c(Cl)cc1Cl` [Compound 8009-5039]: the IC50 on Tip1, on PSD95 d3, at Magi1 d1, at PSD95 d2, at Shank 1 and at PSD95 d1 was above 250 µM in each case.
Take `CC(=O)N1CCc2cc(S(=O)(=O)NC(Cc3ccccc3)C(=O)Nc3ccccc3C(=O)O)ccc21` (stereo not drawn) [Compound C450-0454]: the IC50 is above 250 µM on Tip1; above 250 µM at PSD95 d3; above 250 µM on Magi1 d1; above 250 µM at PSD95 d2; above 250 µM at Shank 1; 206 µM at PSD95 d1.
With `O=C(Nc1ccccc1C(=O)O)c1cccc(NC(=O)C(c2ccccc2)c2ccccc2)c1` [Compound 3289-2331], the IC50 at Tip1 was above 250 µM; on PSD95 d3, above 250 µM; on Magi1 d1, 130 µM; at PSD95 d2 it was above 250 µM; on Shank 1, above 250 µM; on PSD95 d1, above 250 µM.
Take `CCOc1ccc(NS(=O)(=O)c2cccc(C(=O)Nc3ccccc3C(=O)O)c2)cc1` [Compound 3019-0348]: the IC50 at Tip1, on PSD95 d3, at Magi1 d1, on PSD95 d2, on Shank 1 and at PSD95 d1 was above 250 µM each time.
Regarding `O=C(NCCO)C(=O)Nc1ccccc1C(=O)O` [MC 247808], the IC50 at Tip1 was above 250 µM; on PSD95 d3, above 250 µM; on Magi1 d1, above 250 µM; on PSD95 d2, 221 µM; at Shank 1, above 250 µM; at PSD95 d1, above 250 µM.
Consider `COc1cccc(-c2nc3c(c(SCC(=O)Nc4cccc(C(=O)O)c4)n2)Cc2c(CO)cnc(C)c2O3)c1` [Compound E544-0129], for which the IC50 at Tip1 was above 250 µM; on PSD95 d3, 3.47 µM; on Magi1 d1, 60.8 µM; at PSD95 d2, 4.98 µM; at Shank 1 it was 7.59 µM; on PSD95 d1 it was 2.5 µM.

The values above are taken from US20080227684A1, “Small Molecule Inhibitors of PDZ Interactions” (priority 2005, published 2008).
